Results: EP0968998A1, “Cosmetic compositions, ceramide analogues with anti-elastase activity and process for their preparation” (ELF ATOCHEM S.A., priority 1998, dated 2000)

Biological target: T1, élastase de leucocytes humains (Homo sapiens, UniProt P08246)
T1 construct: purchased Elastin Products Co. SE 563; host or cells: human leukocytes, as the enzyme's name says
T1 sequence (P08246 30-267): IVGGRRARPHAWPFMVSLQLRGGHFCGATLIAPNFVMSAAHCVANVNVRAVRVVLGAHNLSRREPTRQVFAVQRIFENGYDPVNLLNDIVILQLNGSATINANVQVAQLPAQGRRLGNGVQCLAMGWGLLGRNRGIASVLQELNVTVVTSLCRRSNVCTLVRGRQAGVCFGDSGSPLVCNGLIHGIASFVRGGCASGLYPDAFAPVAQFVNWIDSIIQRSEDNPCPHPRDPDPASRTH
Experiment: Anti-elastase activity: release of p-nitroaniline from N-succinyl-(Ala)3-p-nitroanilide, spectrophotometry at 410 nm
Format: biochemical
Conditions: pH 8, 37°C, pH8, 5 min preincubation, substrate 250 µM, read-out: % I (%)
Description: Les exemples qui suivent permettent d'illustrer l'invention. Dans ces exemples, on utilise les méthodes d'analyse suivantes : - Spectrographie infrarouge (IR) Les spectres sont réalisés au moyen d'un appareil PERKIN ELMER 1760 IRTF, en dispersion dans KBr à 1 %. Les valeurs sont exprimées en nombre d'onde par centimètre. - Résonance magnétique nucléaire (RMN) Les spectres sont réalisés au moyen d'un appareil BRUCKER DRX 500, à 500 MHz (^1H) et 125 MHz (^13C) dans le DMSO-d6. La calibration de l'appareil est effectuée au moyen de DMSO. Les déplacements chimiques sont exprimés en ppm. L'aspect des signaux est noté : singulet (s), doublet (d), triplet (t), quadruplet (q), multiplet (m), quintuplet (*5) et couplage AB (AB). - Mesure de l'activité anti-élastase L'activité anti-élastase est mesurée selon la méthode qui consiste à faire réagir l'élastase de leucocytes humains (référence SE 563; Elastin Products Co.; Owensville, MO, USA) avec le N-succinyl-(Ala)3-p-nitroanilide (réf. S4760; Sigma) et mesurer la libération de p-nitroaniline. On utilise le N-succinyl-(Ala)3-p-nitroanilide en solution dans le tétrahydrofurane et une solution d'élastase à 100 mg/ml dans un mélange de glycérol et de tampon acétate de sodium (50/50; v/v), pH5. L'activité de l'enzyme est mesurée à 37°C dans 100 mM de tampon Tris-HCI, pH8 contenant 0,01 % de Triton X-100 (volume/volume) et 0,02 % d'azide de sodium (poids/volume). Le céramide à tester, solubilisé dans le tétrahydrofurane (concentration en THF = 0,5 % en volume) est préincubé en présence de l'enzyme (0,05 mg/ml) dans le tampon pendant 5 minutes à 37°C. On ajoute le N-succinyl-(Ala)3-p-nitroanilide (concentration finale : 250 µM) et on mesure la libération de la p-nitroaniline dans une cuve en quartz par spectrophotométrie à 410 nm. La capacité inhibitrice du céramide est exprimée en pourcentage d'inhibition (% I) selon la relation : %I = (1 -(Vi)/(Vo))×100 [formula] dans laquelle Vi et Vo sont les vitesses d'apparition de la p-nitroaniline en présence et en absence d'inhibiteur respectivement. - Mesure de l'amélioration de la barrière cutanée a) mesure de la Perte Insensible en Eau (PIE) La mesure de la PIE permet de quantifier la très faible quantité d'eau qui diffuse passivement à travers le stratum corneum. Ce paramètre représente un très bon index de la fonction barrière du stratum corneum. Cette méthode est surtout utilisée pour contrôler l'efficacité de formules cosmétiques qui, contenant certains types de lipides sont capables de diminuer la PIE et, en conséquence, d'empêcher la déshydratation du stratum corneum. La sonde est laissée en contact de la peau pendant 2 minutes environ de façon à atteindre une position d'équilibre. PIE = D'(dP)/(dx)(gradient de pression de vapeur) [formula] Les valeurs sont exprimées en g/m^2/heure et permettent de calculer un delta de PIE = PIE (peau traitée) - PIE (peau témoin). L'appareil utilisé est un Evaporimètre EPI de Servomed. Les mesures sont effectuées sur deux groupes de 15 volontaires sains ayant une peau sèche, avant l'application du produit (t=0) et après l'application (t=0,5 heure, 1 heure, 3 heures et 6 heures) sur la face interne des deux avant-bras. L'analogue de céramide selon l'invention ou le céramide témoin est incorporé dans une crème ayant la composition suivante (en % en poids) : […]

inhibition at 250 µM (Concentration 250 µM): 67%
inhibition at 500 µM (Concentration 500 µM): 86%
SMILES: CCCCCCCCCCCCCCCCCC(=O)NC(CC)(CO)COC(=O)CCCCCCCCCCCCCCCCC (centres unmarked) [Exemple 4, 1-stéaroyl-2-éthyl-2-stéaroylamino-1,3-propanediol]
